In ChEMBL document CHEMBL1201862, “PubChem BioAssay data set” (2004):
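Step 1: Grow cells in 96-well plates. Step 2: Expose to compound for 48 hours at 5 concentrations. Step 3: Interpolate endpoints linearly; if unreached, use highest concentration. GI50 marks 50% less growth.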 Calls of active or inactive are those of the source. Cut-off read from the data, not from the text of the source: active = GI50 up to about 1.1 µM and inactive = higher.

Experiments:
Assay in all cases: NCI anticancer screen, dose series, 48 h
HCT-15 = system: HCT-15
HCC 2998 = system: HCC 2998
CCRF-CEM = system: CCRF-CEM
Malme-3M = system: Malme-3M
EKVX = system: EKVX
HOP-92 = system: HOP-92
HOP-62 = system: HOP-62
A498 = system: A498
SF-539 = system: SF-539
LOX IMVI = system: LOX IMVI
SN12C = system: SN12C
OVCAR-8 = system: OVCAR-8
SNB-19 = system: SNB-19
SK-MEL-28 = system: SK-MEL-28
OVCAR-5 = system: OVCAR-5
T47D = system: T47D
RPMI-8226 = system: RPMI-8226
SW-620 = system: SW-620
A549 = system: A549
MDA-MB-231 = system: MDA-MB-231
MOLT-4 = system: MOLT-4
NCI-H226 = system: NCI-H226
MDA-N = system: MDA-N
MDA-MB-435 = system: MDA-MB-435
OVCAR-3 = system: OVCAR-3
786-0 = system: 786-0
SK-OV-3 = system: SK-OV-3
UO-31 = system: UO-31
OVCAR-4 = system: OVCAR-4
HT-29 = system: HT-29
CAKI-1 = system: CAKI-1
MCF7 = system: MCF7
PC-3 = system: PC-3
SF-268 = system: SF-268
KM12 = system: KM12
SK-MEL-5 = system: SK-MEL-5
K562 = system: K562
TK-10 = system: TK-10
ACHN = system: ACHN
Hs-578T = system: Hs-578T
HCT-116 = system: HCT-116
UACC-62 = system: UACC-62
M14 = system: M14
NCI-H460 = system: NCI-H460
BT-549 = system: BT-549
NCI-H23 = system: NCI-H23
NCI/ADR-RES = system: NCI/ADR-RES
U-251 = system: U-251
RXF 393 = system: RXF 393
NCI-H522 = system: NCI-H522
DU-145 = system: DU-145
SR = system: SR
COLO 205 = system: COLO 205
UACC-257 = system: UACC-257
IGROV-1 = system: IGROV-1
SK-MEL-2 = system: SK-MEL-2
SNB-75 = system: SNB-75
SF-295 = system: SF-295
HL-60 = system: HL-60

## CCCCn1c2c(n(CCCC)c1=S)-c1c(n(CCCC)c(=S)n1CCCC)SSSS2
HCT-15
  GI50: 0.557 µM
HCC 2998
  GI50: 7.59 µM (inactive)
CCRF-CEM
  GI50: 0.0957 µM (active)
Malme-3M
  GI50: 0.36 µM (active)
EKVX
  GI50: 1.31 µM (inactive)
HOP-92
  GI50: 0.301 µM (active)
HOP-62
  GI50: 6.28 µM (inactive)
A498
  GI50: > 47.2 µM (inactive)
SF-539
  GI50: 0.783 µM (active)
LOX IMVI
  GI50: 2.03 µM (inactive)
SN12C
  GI50: 3.1 µM (inactive)
OVCAR-8
  GI50: 0.718 µM (active)
SNB-19
  GI50: 3.86 µM (inactive)
SK-MEL-28
  GI50: 9.02 µM (inactive)
OVCAR-5
  GI50: 0.362 µM (active)
T47D
  GI50: 0.18 µM (active)
RPMI-8226
  GI50: 0.399 µM (active)
SW-620
  GI50: 0.348 µM (active)
A549
  GI50: 26.7 µM (inactive)
MDA-MB-231
  GI50: 0.656 µM (active)
MOLT-4
  GI50: 0.454 µM (active)
NCI-H226
  GI50: 16.6 µM (inactive)
MDA-N
  GI50: 2.84 µM (inactive)
MDA-MB-435
  GI50: 2.41 µM (inactive)
OVCAR-3
  GI50: 0.267 µM (active)
786-0
  GI50: 1.38 µM (inactive)
SK-OV-3
  GI50: 46.1 µM (inactive)
UO-31
  GI50: 0.881 µM (active)
OVCAR-4
  GI50: 0.367 µM (active)
HT-29
  GI50: 2.26 µM (inactive)
CAKI-1
  GI50: 0.543 µM (active)
MCF7
  GI50: 2.68 µM (inactive)
PC-3
  GI50: 0.414 µM (active)
SF-268
  GI50: 3.44 µM (inactive)
KM12
  GI50: 8.93 µM (inactive)
SK-MEL-5
  GI50: 2.09 µM (inactive)
K562
  GI50: 0.371 µM (active)
TK-10
  GI50: 1.22 µM (inactive)
ACHN
  GI50: 0.966 µM (active)
Hs-578T
  GI50: 3.82 µM (inactive)
HCT-116
  GI50: 2.24 µM (inactive)
UACC-62
  GI50: 1.47 µM (inactive)
M14
  GI50: 3.92 µM (inactive)
NCI-H460
  GI50: 30.8 µM (inactive)
BT-549
  GI50: 0.973 µM (active)
NCI-H23
  GI50: 3.31 µM (inactive)
NCI/ADR-RES
  GI50: 15 µM (inactive)
U-251
  GI50: 1.99 µM (inactive)
RXF 393
  GI50: 2.7 µM (inactive)
NCI-H522
  GI50: 0.0785 µM (active)
DU-145
  GI50: 5.42 µM (inactive)
SR
  GI50: 0.397 µM (active)
COLO 205
  GI50: 0.432 µM (active)
UACC-257
  GI50: 2.29 µM (inactive)
IGROV-1
  GI50: 0.7 µM (active)
SK-MEL-2
  GI50: 2.09 µM (inactive)
SNB-75
  GI50: 4.48 µM (inactive)
SF-295
  GI50: 13.3 µM (inactive)

## COc1cc(/C=C2/CCS(=O)(=O)c3ccc(C)cc3C2=O)cc(OC)c1OC
HCT-15
  GI50: 4.59 µM
HCC 2998
  GI50: 4.34 µM (inactive)
CCRF-CEM
  GI50: 2.85 µM (inactive)
Malme-3M
  GI50: 3.63 µM (inactive)
EKVX
  GI50: 12.1 µM (inactive)
HOP-92
  GI50: 4.18 µM (inactive)
HOP-62
  GI50: 6.04 µM (inactive)
A498
  GI50: 5.78 µM (inactive)
SF-539
  GI50: 2.59 µM (inactive)
LOX IMVI
  GI50: 2.61 µM (inactive)
SN12C
  GI50: 3.66 µM (inactive)
OVCAR-8
  GI50: 2.7 µM (inactive)
SNB-19
  GI50: 4.1 µM (inactive)
HL-60
  GI50: 1.41 µM (inactive)
SK-MEL-28
  GI50: 3.59 µM (inactive)
OVCAR-5
  GI50: 5.87 µM (inactive)
T47D
  GI50: 3.6 µM (inactive)
RPMI-8226
  GI50: 2.65 µM (inactive)
SW-620
  GI50: 4.76 µM (inactive)
A549
  GI50: 4.88 µM (inactive)
MDA-MB-231
  GI50: 3.58 µM (inactive)
MOLT-4
  GI50: 3.62 µM (inactive)
NCI-H226
  GI50: 6.34 µM (inactive)
MDA-N
  GI50: 4.29 µM (inactive)
MDA-MB-435
  GI50: 3.79 µM (inactive)
OVCAR-3
  GI50: 5.5 µM (inactive)
786-0
  GI50: 3.3 µM (inactive)
SK-OV-3
  GI50: 7.35 µM (inactive)
UO-31
  GI50: 5.75 µM (inactive)
OVCAR-4
  GI50: 9.38 µM (inactive)
HT-29
  GI50: 3.92 µM (inactive)
CAKI-1
  GI50: 4.65 µM (inactive)
MCF7
  GI50: 4.19 µM (inactive)
PC-3
  GI50: 6.73 µM (inactive)
SF-268
  GI50: 4.49 µM (inactive)
KM12
  GI50: 4.54 µM (inactive)
SK-MEL-5
  GI50: 2.53 µM (inactive)
K562
  GI50: 2.06 µM (inactive)
TK-10
  GI50: 5.37 µM (inactive)
ACHN
  GI50: 3.66 µM (inactive)
Hs-578T
  GI50: 4.73 µM (inactive)
HCT-116
  GI50: 2.95 µM (inactive)
UACC-62
  GI50: 4.12 µM (inactive)
M14
  GI50: 5.33 µM (inactive)
NCI-H460
  GI50: 3.23 µM (inactive)
BT-549
  GI50: 3.52 µM (inactive)
NCI-H23
  GI50: 3.64 µM (inactive)
NCI/ADR-RES
  GI50: 3.14 µM (inactive)
U-251
  GI50: 4.14 µM (inactive)
NCI-H522
  GI50: 3.39 µM (inactive)
DU-145
  GI50: 3.48 µM (inactive)
SR
  GI50: 2.32 µM (inactive)
COLO 205
  GI50: 4.85 µM (inactive)
UACC-257
  GI50: 4.15 µM (inactive)
IGROV-1
  GI50: 4.06 µM (inactive)
SK-MEL-2
  GI50: 9.75 µM (inactive)
SNB-75
  GI50: 5.27 µM (inactive)
SF-295
  GI50: 14.1 µM (inactive)
